# Several values for one entry are separate records, joined by “and”; a condition that tells them apart may be missing. Identical values can stand only once. Like-named read-outs stand apart in the source and are kept apart here.
# Experiments:
# [1] = biological target: T1, WT Keap1 (tag-free, full-length) (Homo sapiens, UniProt Q14145); assay: biochemical
# [2] = biological target: T1, WT Keap1 (tag-free, full-length); assay: Keap1 TR-FRET Assay 2 (CDDO-FITC/Cora-1-KL9)
# [3] = biological target: T2, Keap1 (His/GST) (Homo sapiens, UniProt Q14145); assay: biochemical
# T2 sequence (Q14145 whole entry): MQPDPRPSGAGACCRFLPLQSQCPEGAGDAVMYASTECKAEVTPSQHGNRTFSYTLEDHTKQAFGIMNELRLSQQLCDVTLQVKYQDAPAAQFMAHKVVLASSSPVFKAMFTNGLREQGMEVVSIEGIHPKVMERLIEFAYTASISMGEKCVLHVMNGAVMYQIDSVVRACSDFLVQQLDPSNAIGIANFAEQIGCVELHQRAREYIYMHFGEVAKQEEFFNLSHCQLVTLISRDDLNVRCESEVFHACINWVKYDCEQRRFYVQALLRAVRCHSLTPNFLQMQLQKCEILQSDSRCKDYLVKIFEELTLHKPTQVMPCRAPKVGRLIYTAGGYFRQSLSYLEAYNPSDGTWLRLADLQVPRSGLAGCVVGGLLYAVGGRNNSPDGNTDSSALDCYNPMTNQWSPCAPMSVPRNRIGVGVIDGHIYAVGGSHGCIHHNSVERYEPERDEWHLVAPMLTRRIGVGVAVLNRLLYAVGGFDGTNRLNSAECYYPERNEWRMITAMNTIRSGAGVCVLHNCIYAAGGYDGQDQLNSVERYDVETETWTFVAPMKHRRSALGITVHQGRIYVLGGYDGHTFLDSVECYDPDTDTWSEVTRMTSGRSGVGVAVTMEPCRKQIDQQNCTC
# [4] = biological target: T2, Keap1 (His/GST); assay: Keap1 TR-FRET Assay 3 (CDDO-FITC/Tb-Anti-6xHis); format: binding
# [5] = biological target: T1, WT Keap1 (tag-free, full-length); assay: biochemical; conditions: read-out: Assay 1: % at 100
# [6] = pH 7.4, 1-octanol / sodium phosphate buffer
# [7] = biological target: T3, HsProRS (Homo sapiens, UniProt P07814); assay: TR-FRET ProRS ligand displacement / saturation binding assay, HsProRS; conditions: absence of substrates; read-out: HsProRS (KD [nM]) −
# T3 construct: made in house; host or cells: SoluBL-21 E. coli
# T3 sequence (P07814 996-1512): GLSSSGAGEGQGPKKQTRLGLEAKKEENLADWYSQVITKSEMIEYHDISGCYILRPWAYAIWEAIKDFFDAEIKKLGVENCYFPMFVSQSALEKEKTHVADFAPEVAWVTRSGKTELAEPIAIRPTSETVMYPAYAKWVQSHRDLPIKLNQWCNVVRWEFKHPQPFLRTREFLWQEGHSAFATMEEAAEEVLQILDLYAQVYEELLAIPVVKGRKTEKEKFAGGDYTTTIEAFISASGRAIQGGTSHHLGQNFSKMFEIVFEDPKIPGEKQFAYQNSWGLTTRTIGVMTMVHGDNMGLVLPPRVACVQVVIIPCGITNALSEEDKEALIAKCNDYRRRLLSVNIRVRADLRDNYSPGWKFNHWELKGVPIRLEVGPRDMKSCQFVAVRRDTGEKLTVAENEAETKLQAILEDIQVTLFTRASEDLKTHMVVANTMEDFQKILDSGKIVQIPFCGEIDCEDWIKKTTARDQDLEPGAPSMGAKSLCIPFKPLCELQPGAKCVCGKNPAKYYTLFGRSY
# Description: (§1) A stock solution containing CoraFluor-1-Halo-labeled HT-PfcProRS or CoraFluor-1-Halo-labeled HT-HsProRS at the concentration specified for each experiment was prepared in assay buffer (50 mM Tris, pH 7.5, 20 mM KCl, 10 mM MgCl2, 0.05% Tween-20, 1 mM dithiothreitol, and 0.5 mg/mL BSA). […] Plates were mixed on an Ika MTS 2/4 Digital Microtiter Shaker at 750 rpm for 2 min, centrifuged at 1,000×g at 25° C. for 1 min. and allowed to equilibrate at room temperature for 2 h before TR-FRET measurements were taken. […] PRISM 9 (GraphPad) was used to perform non-linear regression analysis (one site—specific binding), plot dose-response curves, and calculate KD values.
# (§2) A Multidrop Combi Reagent Dispenser (ThermoFisher Scientific) was used to dispense 20 μL of 2× protein solution into each well. […] Plates were mixed on an Ika MTS 2/4 Digital Microtiter Shaker at 750 rpm for 2 min, centrifuged at 1,000×g at 25° C. for I min, and allowed to equilibrate for 2 h at room temperature before TR-FRET measurements were taken.
# (§3) PRISM 9 (GraphPad) was used to perform non-linear regression analysis (log(inhibitor) vs. response—Variable slope (four parameters)), plot dose-response curves, and calculate iC50 values.
# (§4) Test compounds were dispensed in duplicate, triplicate, or sextuplicate dose-response format using a D300 digital dispenser (Hewlett Packard). […] Plates were mixed on an Ika MTS 2/4 Digital Microtiter Shaker at 750 rpm for 2 min, centrifuged at 1,000×g at 25° C. for 1 min, and allowed to equilibrate for 2 h at room temperature.
# (§5) GraphPad PRISM was used to perform non-linear regression (log(inhibitor) vs. response—Variable slope (four parameters)), plot dose-response curves, and calculate IC50 values.
# (§6) This assay was generally conducted in the same manner as the CoraFluor-1-Halo format with minor differences. […] Each well was supplemented with 1 nM CoraFluor-1-Pfp-labeled anti-His6 antibody before the 2 h incubation.
# (§7) TR-FRET measurements were acquired in kinetic mode (1 read every ˜45 s) for at least 10 min.
# [8] = biological target: T4, PfcProRS (Plasmodium falciparum, UniProt Q8I5R7); assay: biochemical; format: binding; conditions: PfcProRS KD, absence of substrates (0 μM ATP)
# T4 construct: made in house; host or cells: SoluBL-21 E. coli
# T4 sequence (Q8I5R7 249-746): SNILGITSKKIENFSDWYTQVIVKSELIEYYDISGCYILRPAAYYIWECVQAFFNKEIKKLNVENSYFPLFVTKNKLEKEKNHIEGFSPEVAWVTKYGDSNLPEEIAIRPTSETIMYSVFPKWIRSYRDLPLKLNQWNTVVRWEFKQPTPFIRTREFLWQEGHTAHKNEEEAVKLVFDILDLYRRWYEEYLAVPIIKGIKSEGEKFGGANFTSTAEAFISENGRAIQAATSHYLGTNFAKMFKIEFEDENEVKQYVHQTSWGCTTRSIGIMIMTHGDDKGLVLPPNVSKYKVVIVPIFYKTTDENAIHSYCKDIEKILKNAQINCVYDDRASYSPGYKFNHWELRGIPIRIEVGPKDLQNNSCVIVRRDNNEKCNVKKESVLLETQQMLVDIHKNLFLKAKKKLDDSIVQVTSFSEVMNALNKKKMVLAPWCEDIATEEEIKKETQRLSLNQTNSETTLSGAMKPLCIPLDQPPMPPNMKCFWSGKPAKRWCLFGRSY
# Description: as §1, §2, §3, §4, §5, §6, §7
# [9] = biological target: T5, HsGluProRS (Homo sapiens, UniProt P07814); assay: HsGluProRS TR-FRET in HEK293 lysate; format: binding; conditions: 250 nM tracer, serially diluted HEK293T lysate, anti-HsGluProRS antibodies
# T5 construct: assay was developed utilizing native proteins in cell lysate or intact cells; endogenous in cells
# T5 sequence (P07814 whole entry): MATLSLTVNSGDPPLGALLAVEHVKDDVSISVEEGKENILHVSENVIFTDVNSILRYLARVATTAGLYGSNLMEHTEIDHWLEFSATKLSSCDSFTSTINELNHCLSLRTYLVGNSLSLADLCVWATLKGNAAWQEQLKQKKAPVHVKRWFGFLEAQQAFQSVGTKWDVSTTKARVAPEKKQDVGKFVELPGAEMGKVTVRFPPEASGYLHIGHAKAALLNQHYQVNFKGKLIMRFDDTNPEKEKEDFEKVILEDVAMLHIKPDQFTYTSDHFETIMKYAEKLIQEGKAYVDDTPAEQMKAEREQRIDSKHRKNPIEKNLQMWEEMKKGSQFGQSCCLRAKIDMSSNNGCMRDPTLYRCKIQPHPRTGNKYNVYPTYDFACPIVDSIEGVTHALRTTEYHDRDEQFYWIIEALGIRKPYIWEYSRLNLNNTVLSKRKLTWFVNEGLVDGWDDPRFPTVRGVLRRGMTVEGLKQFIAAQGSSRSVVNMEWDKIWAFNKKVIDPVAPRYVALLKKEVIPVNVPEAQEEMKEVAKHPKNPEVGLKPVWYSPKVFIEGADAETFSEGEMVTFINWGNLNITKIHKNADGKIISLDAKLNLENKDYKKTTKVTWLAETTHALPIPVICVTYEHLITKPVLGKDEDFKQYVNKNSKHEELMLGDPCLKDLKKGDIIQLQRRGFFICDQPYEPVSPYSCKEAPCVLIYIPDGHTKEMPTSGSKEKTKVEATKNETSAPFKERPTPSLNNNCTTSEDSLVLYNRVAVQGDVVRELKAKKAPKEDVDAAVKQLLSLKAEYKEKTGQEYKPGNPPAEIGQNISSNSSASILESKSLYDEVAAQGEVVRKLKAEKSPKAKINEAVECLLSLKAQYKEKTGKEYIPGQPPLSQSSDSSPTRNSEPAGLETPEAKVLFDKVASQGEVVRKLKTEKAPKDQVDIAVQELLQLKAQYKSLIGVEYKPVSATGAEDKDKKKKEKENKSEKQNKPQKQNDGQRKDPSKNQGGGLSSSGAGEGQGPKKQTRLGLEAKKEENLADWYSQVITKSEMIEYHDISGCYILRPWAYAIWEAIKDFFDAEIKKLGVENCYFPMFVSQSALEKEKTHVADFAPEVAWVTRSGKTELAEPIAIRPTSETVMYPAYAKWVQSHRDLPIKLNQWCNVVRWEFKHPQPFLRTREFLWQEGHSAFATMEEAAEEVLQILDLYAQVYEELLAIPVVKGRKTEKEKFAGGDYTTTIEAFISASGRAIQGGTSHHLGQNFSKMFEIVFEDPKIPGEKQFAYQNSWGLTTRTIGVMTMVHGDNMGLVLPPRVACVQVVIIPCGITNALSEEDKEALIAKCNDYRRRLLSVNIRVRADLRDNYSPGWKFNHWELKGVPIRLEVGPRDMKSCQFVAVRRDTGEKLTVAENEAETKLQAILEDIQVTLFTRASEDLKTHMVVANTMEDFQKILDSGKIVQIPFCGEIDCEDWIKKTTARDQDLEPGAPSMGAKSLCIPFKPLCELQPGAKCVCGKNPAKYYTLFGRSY
# From the text: Freshly prepared HEK293 cell lysates were serial diluted into flat-bottom, white 384-well plates (Corning 3572).
# Abcam ab31531 was raised against an Abcam-proprietary, recombinant, full-length HsGluProRS protein. Proteintech 67712-1-Ig was raised against a peptide encoding HsGluProRS residues 1163-1512. Cell Signaling Technology CST45956 was raised against a peptide encoding residues surrounding HsGluProRS^P978. CTK0101 (ChromTek) anti-Rabbit-IgG secondary nanobody (single domain nanobody) was previously labeled with CoraFluor-1-Pfp and validated to bind Rabbit IgG antibodies with high affinity.
# For the TR-FRET assay, HEK293T lysate was serially diluted into 384-well plates containing constant concentrations of tracer (either 250 nM MAT574 for ProRS or 250 nM MAT579 for GluRS), one of the antibodies (5 nM), and for the unlabeled antibodies, CoraFluor-1-Pfp labeled nano secondary (20 nM).
# [10] = biological target: T6, HscPheRS (human cytoplasmic phenylalanyl-tRNA synthetase) (Homo sapiens, UniProt Q9Y285); assay: PheRS activity-based assay, HscPheRS; format: biochemical
# T6 construct: made in house; host or cells: E. coli
# T6 sequence (Q9Y285 1-508): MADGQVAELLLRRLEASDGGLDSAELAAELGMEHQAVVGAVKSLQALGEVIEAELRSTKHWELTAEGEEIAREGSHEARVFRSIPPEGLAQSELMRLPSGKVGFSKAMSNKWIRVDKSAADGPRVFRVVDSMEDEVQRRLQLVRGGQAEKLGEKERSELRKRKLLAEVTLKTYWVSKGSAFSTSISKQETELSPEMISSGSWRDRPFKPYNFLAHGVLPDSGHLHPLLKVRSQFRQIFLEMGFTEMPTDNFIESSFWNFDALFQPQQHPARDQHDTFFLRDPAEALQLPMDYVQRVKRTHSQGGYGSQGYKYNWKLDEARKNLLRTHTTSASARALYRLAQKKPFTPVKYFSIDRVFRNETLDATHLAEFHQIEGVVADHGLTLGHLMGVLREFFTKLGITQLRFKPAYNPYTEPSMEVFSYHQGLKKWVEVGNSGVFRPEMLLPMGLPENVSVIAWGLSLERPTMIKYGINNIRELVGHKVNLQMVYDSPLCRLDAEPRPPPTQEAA
# T6 sequence (Q9NSD9 1-589 partner): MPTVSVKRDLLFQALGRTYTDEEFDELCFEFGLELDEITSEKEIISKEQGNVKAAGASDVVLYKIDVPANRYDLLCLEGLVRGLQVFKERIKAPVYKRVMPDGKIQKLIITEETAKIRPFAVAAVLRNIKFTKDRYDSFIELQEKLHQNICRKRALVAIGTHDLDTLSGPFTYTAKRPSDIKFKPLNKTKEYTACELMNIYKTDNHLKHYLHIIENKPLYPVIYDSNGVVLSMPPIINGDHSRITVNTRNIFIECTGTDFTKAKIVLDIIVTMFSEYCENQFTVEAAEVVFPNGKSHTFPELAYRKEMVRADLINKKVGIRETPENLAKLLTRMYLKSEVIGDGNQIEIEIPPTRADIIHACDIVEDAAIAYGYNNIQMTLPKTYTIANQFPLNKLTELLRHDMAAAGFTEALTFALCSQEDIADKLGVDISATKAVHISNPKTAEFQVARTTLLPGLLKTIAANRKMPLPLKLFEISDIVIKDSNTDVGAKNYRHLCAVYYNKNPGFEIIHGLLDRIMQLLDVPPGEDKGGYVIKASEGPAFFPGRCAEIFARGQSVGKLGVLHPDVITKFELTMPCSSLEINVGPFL
# [11] = biological target: T7, MtbPheRS (Mycobacterium tuberculosis phenylalanyl-tRNA synthetase) (Mycobacterium tuberculosis, UniProt P9WFU3); assay: PheRS activity-based assay, MtbPheRS; format: biochemical
# T7 construct: made in house; host or cells: Mycobacterium
# T7 sequence (P9WFU3 whole entry): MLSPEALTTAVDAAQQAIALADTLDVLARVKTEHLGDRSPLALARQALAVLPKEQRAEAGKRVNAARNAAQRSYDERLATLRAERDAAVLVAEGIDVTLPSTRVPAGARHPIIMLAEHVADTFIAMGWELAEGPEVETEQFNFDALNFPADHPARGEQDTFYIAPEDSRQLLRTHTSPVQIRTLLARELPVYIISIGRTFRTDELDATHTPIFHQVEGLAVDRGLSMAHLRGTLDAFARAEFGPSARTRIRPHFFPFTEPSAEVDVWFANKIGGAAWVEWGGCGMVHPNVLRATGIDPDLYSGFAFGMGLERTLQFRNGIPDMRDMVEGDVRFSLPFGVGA
# T7 sequence (P9WFU1 whole entry, further chain): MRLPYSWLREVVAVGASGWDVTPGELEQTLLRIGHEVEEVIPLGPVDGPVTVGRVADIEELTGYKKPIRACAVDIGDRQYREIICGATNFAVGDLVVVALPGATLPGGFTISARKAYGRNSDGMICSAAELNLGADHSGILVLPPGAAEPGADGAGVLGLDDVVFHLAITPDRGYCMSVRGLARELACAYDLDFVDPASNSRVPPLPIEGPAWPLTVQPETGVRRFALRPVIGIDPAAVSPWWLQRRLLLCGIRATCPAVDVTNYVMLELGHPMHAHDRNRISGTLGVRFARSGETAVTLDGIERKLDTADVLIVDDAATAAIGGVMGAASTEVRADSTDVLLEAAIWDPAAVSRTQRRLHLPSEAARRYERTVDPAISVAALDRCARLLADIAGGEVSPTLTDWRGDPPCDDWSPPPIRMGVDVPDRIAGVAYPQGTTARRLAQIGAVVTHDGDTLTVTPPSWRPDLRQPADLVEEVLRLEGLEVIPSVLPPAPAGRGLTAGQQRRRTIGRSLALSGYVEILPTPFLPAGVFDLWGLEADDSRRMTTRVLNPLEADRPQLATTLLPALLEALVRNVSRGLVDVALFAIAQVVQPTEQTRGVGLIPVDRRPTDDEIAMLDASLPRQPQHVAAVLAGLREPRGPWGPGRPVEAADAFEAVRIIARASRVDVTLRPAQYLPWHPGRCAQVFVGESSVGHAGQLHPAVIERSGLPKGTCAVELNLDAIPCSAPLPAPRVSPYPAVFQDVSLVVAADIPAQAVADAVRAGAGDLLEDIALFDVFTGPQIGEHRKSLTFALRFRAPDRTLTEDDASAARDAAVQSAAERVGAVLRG
# T1 sequence (Q14145 whole entry): as the sequence (Q14145 whole entry) above
compound,measurement,setting,value
"CC1(C)CC[C@]2(C(=O)NCCCOCCOCCOCCCNC(=S)Nc3ccc(-c4c5ccc(=O)cc-5oc5cc(O)ccc45)c(C(=O)O)c3)CC[C@]3(C)[C@H](C(=O)C=C4[C@@]5(C)C=C(C#N)C(=O)C(C)(C)[C@@H]5CC[C@]43C)[C@@H]2C1 [CDDO-FITC, 5-(3-(1-((4aS,6aR,6bS,8aR,12aS,14aR,14bS)-11-cyano-2,2,6a,6b,9,9,12a-heptamethyl-10,14-dioxo-1,3,4,5,6,6a,6b,7,8,8a,9,10,12a,14,14a,14b-hexadecahydropicen-4a(2H)-yl)-1-oxo-6,9,12-trioxa-2-azapentadecan-15-yl)thioureido)-2-(6-hydroxy-3-oxo-3H-xanthen-9-yl)benzoic acid]",Kd,[1],164 nM
same,Kd,"[2]; Kd of CDDO-FITC, saturation binding at fixed Cora-1-KL9 and Keap1, one-site model",164 ± 37.1 nM
"Cc1sc2c(c1C)C(c1ccc(Cl)cc1)=NC(CC(=O)NCCCOCCOCCOCCCNC(=O)[C@]13CCC(C)(C)C[C@H]1[C@H]1C(=O)C=C4[C@@]5(C)C=C(C#N)C(=O)C(C)(C)[C@@H]5CC[C@@]4(C)[C@]1(C)CC3)c1nnc(C)n1-2 (stereo partly drawn) [CDDO-JQ1, (4aS,6aR,6bS,8aR,12aS,14aR,14bS)-N-(1-(4-(4-chlorophenyl)-2,3,9-trimethyl-6H-thieno[3,2-f][1,2,4]triazolo[4,3-a][1,4]diazepin-6-yl)-2-oxo-7,10,13-trioxa-3-azahexadecan-16-yl)-11-cyano-2,2,6a,6b,9,9,12a-heptamethyl-10,14-dioxo-1,3,4,5,6,6a,6b,7,8,8a,9,10,12a,14,14a,14b-hexadecahydropicene-4a(2H)-carboxamide]",IC50,[1],3370 nM
same,Kd,[1],1770 nM
same,IC50,[3],495000 nM
same,IC50,[4],2680 nM
same,inhibition at 100 µM,[5],< 5%
same,fold less potent than CDDO (CDDO/CDDO-Me),[2]; Assay-2,> 250 fold and > 500 fold
O=C(CCCCCN1CCN2CCNC(=O)c3cccc(c3[O-])C(=O)NCCN(CCNC(=O)c3cccc(c3[O-])C1=O)CCN1CCNC(=O)c3cccc(c3[O-])C(=O)NCCN(CCNC(=O)c3cccc(c3[O-])C(=O)NCC1)CC2)NCCOCCOCCCCCCCl.[Tb+3] [Cora-1-Halo],log D,[6],−0.7
O=C(CCCCCN1CCN2CCNC(=O)c3cc(Cl)cc(c3[O-])C(=O)NCCN(CCNC(=O)c3cc(Cl)cc(c3[O-])C1=O)CCN1CCNC(=O)c3cc(Cl)cc(c3[O-])C(=O)NCCN(CCNC(=O)c3cc(Cl)cc(c3[O-])C(=O)NCC1)CC2)NCCOCCOCCCCCCCl.[Tb+3] [Cora-2-Halo],log D,[6],0.7
"Nc1ncnc2c1ncn2[C@@H]1O[C@H](CN(CCCCCCOCCOCCNC(=O)c2ccc(C(=O)O)c(-c3c4ccc(=O)cc-4oc4cc(O)ccc34)c2)S(=O)(=O)NC(=O)[C@@H]2CCCN2)[C@@H](O)[C@H]1O [MAT574, 4-((2-(2-((6-((N-(L-prolyl)sulfamoyl)(((2R,3S4R,5R)-5-(6-amino-9H-purin-9-yl)-3,4-dihydroxytetrahydrofuran-2-yl)methyl)amino)hexyl)oxy)ethoxy)ethyl)carbamoyl)-2-(6-hydroxy-3-oxo-3H-xanthen-9-yl)benzoic acid]",Kd,[7],72.2 nM
same,Kd,[8],2270 nM
same,TR-FRET signal,[9],specific TR-FRET signal
"Nc1ncnc2c1ncn2[C@@H]1O[C@H](CN(CCCCCCOCCOCCNC(=O)c2ccc(C(=O)O)c(-c3c4ccc(=O)cc-4oc4cc(O)ccc34)c2)S(=O)(=O)NC(=O)[C@@H](N)CCC(=O)O)[C@@H](O)[C@H]1O [MAT579, 4-((2-(2-((6-((N-(L-glutamyl)sulfamoyl)(((2R,3S,4R,5R)-5-(6-amino-9H-purin-9-yl)-3,4-dihydroxytetrahydrofuran-2-yl)methyl)amino)hexyl)oxy)ethoxy)ethyl)carbamoyl)-2-(6-hydroxy-3-oxo-3H-xanthen-9-yl)benzoic acid]",TR-FRET signal,[9],No TR-FRET signal was observed
"Nc1ncnc2c1ncn2[C@@H]1O[C@H](CNS(=O)(=O)NC(=O)[C@@H](N)Cc2ccccc2)[C@@H](O)[C@H]1O [PheSNA, (S)-amino-N-(N-(((2R,3S,4R,5R)-5-(6-amino-9H-purin-9-yl)-3,4-dihydroxytetrahydrofuran-2-y)methyl)sulfamoyl)-3-phenylpropanamide]",IC50,[10],140 nM
same,IC50,[11],2000 nM
"(S)-2-amino-N-(N-(((2R,3S,4R,5R)-S-(6-amino-9H-purin-9-yl)-3,4-dihydroxytetrahydrofuran-2-yl)methyl)-N-(6-(2-(2-aminoethoxy)ethoxy)hexyl)sulfamoyl)-3-phenylpropanamide [MAT581]",IC50,"[11]; phenylalanine 100 μM, ATP 200 μM",206000 nM
